Reference: PubChem BioAssay AID330 (DTP/NCI, 2004)
“And” between values parts separate entries of the source, which are not always exact repeats. Equal values may be shown once. Toxic doses and inconclusive results are not listed.

System: P388 leukemia ip, CD2F1 mice, survival T/C
Assay: NCI In Vivo Anticancer Drug Screen. Data for tumor model P388 Leukemia (intraperitoneal) in CD2F1 (CDF1) mice
Details: endpoint: median survival time, higher = longer survival
In short: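 Mice carrying the transplanted tumor received test compound or vehicle. Survival was recorded in each group, and the value is the treated-group measurement divided by that of the vehicle-treated control group.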

[1] = dose: 60.0 mg/kg/injection, schedule: Q01DX005 (ip), vehicle: saline
[2] = dose: 120.0 mg/kg/injection, schedule: Q01DX005 (ip), vehicle: saline
[3] = dose: 240.0 mg/kg/injection, schedule: Q01DX005 (ip), vehicle: saline
[4] = dose: 100.0 mg/kg/injection, schedule: Q01DX009 (ip), vehicle: saline
[5] = dose: 200.0 mg/kg/injection, schedule: Q01DX009 (ip), vehicle: saline
[6] = dose: 25.0 mg/kg/injection, schedule: Q01DX009 (ip), vehicle: saline with Tween-80
[7] = dose: 100.0 mg/kg/injection, schedule: Q01DX009 (ip), vehicle: Klucel (hydroxypropylcellulose) (HPC)
[8] = dose: 200.0 mg/kg/injection, schedule: Q01DX009 (ip), vehicle: Klucel (hydroxypropylcellulose) (HPC)

## COC(=O)C1(CC(=O)c2ccncc2)NC(=S)NC(=O)C1C#N (stereo not drawn)
[1]
  T/C: 99 % of control
[2]
  T/C: 101 % of control
[3]
  T/C: 94 % of control

## S=C(S)NN1CCOCC1
[4]
  T/C: 88 % of control
[5]
  T/C: 110 % of control
dose: 400.0 mg/kg/injection, schedule: Q01DX009 (ip), vehicle: saline
  T/C: 106 % of control

## Brc1nc(Br)c(Br)[nH]1
dose: 50.0 mg/kg/injection, schedule: Q01DX009 (ip), vehicle: saline sonified
  T/C: 91 % of control

## Cc1cccc(C)c1NC(=O)CCC(=O)O
dose: 50.0 mg/kg/injection, schedule: Q01DX005 (ip), vehicle: Klucel (hydroxypropylcellulose) (HPC)
  T/C: 104 % of control
dose: 100.0 mg/kg/injection, schedule: Q01DX005 (ip), vehicle: Klucel (hydroxypropylcellulose) (HPC)
  T/C: 102 % of control
dose: 200.0 mg/kg/injection, schedule: Q01DX005 (ip), vehicle: Klucel (hydroxypropylcellulose) (HPC)
  T/C: 103 % of control

## Cn1nc(N)c2ncc(-c3ccc(Cl)cc3)nc21
dose: 100.0 mg/kg/injection, schedule: Q04DX003 (ip), vehicle: saline with Tween-80
  T/C: 90 % of control
dose: 200.0 mg/kg/injection, schedule: Q04DX003 (ip), vehicle: saline with Tween-80
  T/C: 95 % of control

## CCOC(=O)C1CCCCC12Nc1cccc3cccc(c13)N2 (stereo not drawn)
dose: 50.0 mg/kg/injection, schedule: Q01DX005 (ip), vehicle: saline with Tween-80
  T/C: 95 % of control
dose: 100.0 mg/kg/injection, schedule: Q01DX005 (ip), vehicle: saline with Tween-80
  T/C: 105 % of control
dose: 200.0 mg/kg/injection, schedule: Q01DX005 (ip), vehicle: saline with Tween-80
  T/C: 113 % of control

## CC(=O)c1cc(Cl)ccc1OCC(O)CNc1ccccc1C(=O)c1ccccc1 (stereo not drawn)
dose: 60.0 mg/kg/injection, schedule: Q01DX005 (ip), vehicle: saline with Tween-80
  T/C: 103 % of control
dose: 120.0 mg/kg/injection, schedule: Q01DX005 (ip), vehicle: saline with Tween-80
  T/C: 87 % of control
dose: 240.0 mg/kg/injection, schedule: Q01DX005 (ip), vehicle: saline with Tween-80
  T/C: 87 % of control

## CCCCC(CC)C1NC(C(=O)O)CS1 (stereo not drawn)
dose: 50.0 mg/kg/injection, schedule: Q01DX009 (ip), vehicle: suspension in saline
  T/C: 96 % of control
dose: 100.0 mg/kg/injection, schedule: Q01DX009 (ip), vehicle: suspension in saline
  T/C: 87 % of control
dose: 200.0 mg/kg/injection, schedule: Q01DX009 (ip), vehicle: suspension in saline
  T/C: 96 % of control

## COc1ccc([I+]c2cccc(Cl)c2)cc1Cl
dose: 0.09 mg/kg/injection, schedule: Q01DX009 (ip), vehicle: saline with Tween-80
  T/C: 106 % of control
dose: 0.18 mg/kg/injection, schedule: Q01DX009 (ip), vehicle: saline with Tween-80
  T/C: 112 % of control
dose: 0.37 mg/kg/injection, schedule: Q01DX009 (ip), vehicle: saline with Tween-80
  T/C: 102 % of control
dose: 0.75 mg/kg/injection, schedule: Q01DX009 (ip), vehicle: saline with Tween-80
  T/C: 122 % of control
dose: 12.5 mg/kg/injection, schedule: Q01DX009 (ip), vehicle: saline with Tween-80
  T/C: 150 % of control and 159 % of control
[6]
  T/C: 106 % of control and 112 % of control

## Cc1ccccc1C1=NC2(CCCCC2)N=C1NN
dose: 50.0 mg/kg/injection, schedule: Q01DX009 (ip), vehicle: Klucel (hydroxypropylcellulose) (HPC)
  T/C: 104 % of control
[7]
  T/C: 98 % of control
[8]
  T/C: 91 % of control

## CC(=O)NC(CC(C)C)C(=O)O (stereo not drawn)
[6]
  T/C: 95 % of control
dose: 50.0 mg/kg/injection, schedule: Q01DX009 (ip), vehicle: saline with Tween-80
  T/C: 86 % of control and 94 % of control
[7]
  T/C: 104 % of control
dose: 100.0 mg/kg/injection, schedule: Q01DX009 (ip), vehicle: saline with Tween-80
  T/C: 100 % of control and 105 % of control
[8]
  T/C: 114 % of control
dose: 200.0 mg/kg/injection, schedule: Q01DX009 (ip), vehicle: saline with Tween-80
  T/C: 118 % of control
dose: 400.0 mg/kg/injection, schedule: Q01DX009 (ip), vehicle: Klucel (hydroxypropylcellulose) (HPC)
  T/C: 100 % of control
dose: 400.0 mg/kg/injection, schedule: Q01DX009 (ip), vehicle: saline with Tween-80
  T/C: 105 % of control

## C=C(CC(N)=O)C(N)C(=O)O (stereo not drawn)
[1]
  T/C: 100 % of control
[2]
  T/C: 100 % of control
[3]
  T/C: 100 % of control

## CCCCCC(=O)NCC(=O)NC1C(C)OC(Nc2ncnc3nc[nH]c23)C(O)C1O (stereo not drawn)
dose: 0.5 mg/kg/injection, schedule: Q01DX009 (ip), vehicle: other
  T/C: 99 % of control
dose: 1.0 mg/kg/injection, schedule: Q01DX009 (ip), vehicle: other
  T/C: 102 % of control
dose: 2.0 mg/kg/injection, schedule: Q01DX009 (ip), vehicle: other
  T/C: 106 % of control
dose: 4.0 mg/kg/injection, schedule: Q01DX009 (ip), vehicle: other
  T/C: 106 % of control
dose: 8.0 mg/kg/injection, schedule: Q01DX009 (ip), vehicle: other
  T/C: 99 % of control

## CNCC(OC)c1ccc(O)c(O)c1 (stereo not drawn)
[4]
  T/C: 104 % of control and 107 % of control
[5]
  T/C: 107 % of control and 118 % of control
